Assay: Toxic hemolytic activity against RBC assessed as hemolytic index
Type: ADME, cell-based
Settings: erythrocyte

| SMILES | Activity |
| --- | --- |
| C[C@@H]1CC[C@@]2(OC1)O[C@H]1[C@@H](O)[C@H]3[C@@H]4CC[C@H]5C[C@@H](O[C@@H]6O[C@H](CO)[C@H](O[C@@H]7O[C@H](CO)C(O)[C@H](O[C@@H]8OC[C@@H](O)[C@H](O)[C@H]8O)[C@H]7O[C@@H]7O[C@H](CO)[C@H](O)[C@H](O[C@@H]8O[C@H](CO)[C@@H](O)[C@H](O)[C@H]8O)[C@H]7O)[C@H](O)[C@H]6O)[C@H](O)C[C@]5(C)[C@H]4CC[C@]3(C)[C@H]1[C@@H]2C (some centres undefined) [DIGITONIN] | 135000 |
| CC(=O)O[C@@H]1CO[C@@H](O[C@@H]2[C@@H](O)[C@H](O[C@@H]3[C@H](O)[C@@H](O[C@@H]4O[C@H](CO)[C@H](O)[C@H](O[C@@H]5O[C@H](CO)[C@@H](O)[C@H](O)[C@H]5O)[C@H]4O)[C@H](O[C@@H]4C[C@@H]5CC[C@H]6[C@@H]7[C@H](O)[C@@H]8O[C@]9(CC[C@@H](C)CO9)[C@@H](C)[C@@H]8[C@@]7(C)CC[C@@H]6[C@@]5(C)C[C@H]4O)O[C@@H]3CO)O[C@H](CO)[C@H]2O)[C@@H](O)[C@H]1O | 52000 |
| CC(=O)OC[C@H]1O[C@@H](O[C@H]2[C@@H](O)[C@@H](CO)O[C@@H](O[C@H]3[C@H](O[C@@H]4C[C@@H]5CC[C@H]6[C@@H]7[C@H](O)[C@@H]8O[C@]9(CC[C@@H](C)CO9)[C@@H](C)[C@@H]8[C@@]7(C)CC[C@@H]6[C@@]5(C)C[C@H]4O)O[C@H](CO)[C@H](O[C@@H]4O[C@H](CO)[C@@H](O)[C@H](O[C@@H]5OC[C@@H](O)[C@H](O)[C@@H]5O)[C@H]4O)[C@@H]3O)[C@@H]2O)[C@H](O)[C@@H](O)[C@@H]1O | 40000 |
| CC(=O)OC[C@H]1O[C@@H](O[C@H]2[C@@H](O)[C@@H](CO)O[C@@H](O[C@H]3[C@H](O[C@@H]4C[C@@H]5CC[C@H]6[C@@H]7[C@H](O)[C@@H]8O[C@]9(CC[C@@H](C)CO9)[C@@H](C)[C@@H]8[C@@]7(C)CC[C@@H]6[C@@]5(C)C[C@H]4O)O[C@H](CO)[C@H](O[C@@H]4O[C@H](CO)[C@@H](O)[C@H](O[C@@H]5OC[C@@H](OC(C)=O)[C@H](O)[C@@H]5O)[C@H]4O)[C@@H]3O)[C@@H]2O)[C@H](O)[C@@H](O)[C@@H]1O | 43000 |
